Experimental data from US20060217425A1, “Methods of treating cancer using PPAR-gamma antagonists” (priority 2005, published 2006).
Entries after “also recorded” stand apart in the source; their conditions may differ. Where two headings read alike, the source gives them in different places.

Legend:
Format in all cases: cell-based
[1] = test system: panel of solid tumor and hematopoietic cancer cell lines; experiment: MTT proliferation assay, panel of solid tumor and hematopoietic cancer cell lines
Procedure: (§1) In one study, in vitro cytotoxicity of a PPARγ agonist with a favorable toxicity profile (pioglitazone [Actos®]) was tested against two PPARγ antagonists (T0070907 and GW9662) in a panel of solid tumor and hematopoietic cancer cell lines, using an MTT proliferation assay.
(§2) In one exemplary method, stock solutions of the above referenced agents were dissolved in 50:50 DMSO:DMF and then diluted into cell growth medium. Concentrations of 2-40 micromolar over 5-7 days provided significant growth inhibition for a range of hematopoietic (NHL & MM) and epithelial lines (renal cell, colon, breast). […] Also, both antagonists were dissolved in a cyclodextrin-propylene glycol vehicle and administered to mice at doses of 7.5-15 mg/kg intraperitoneally daily for 3 weeks with mild-moderate toxicity.

solid tumor lines = experiment: MTT proliferation assay, solid tumor lines
Procedure: as §1, §2

[2] = test system: Hematopoietic (NHL and MM) cell lines; experiment: MTT proliferation assay, hematopoietic (NHL and MM) cell lines; details: unit printed only in the preceding sentence
Procedure: as §1, §2

| IC50 (solid tumor lines; MTT proliferation assay, range across solid tumor lines, read-out: IC50 in solid tumor lines (range over lines)) [µM] | IC50 (solid tumor lines; mean±SD across solid tumor lines, read-out: IC50 in solid tumor lines, mean±SD) [µM] | SMILES | effect of combination with the agonist pioglitazone on growth inhibition of cancer cell lines [1] | relative potency ([1]; comparison of IC50 values) | IC50 ([2]; MTT proliferation assay, range across NHL and MM lines, read-out: IC50 in hematopoietic (NHL and MM) cell lines (range over lines)) [µM] | IC50 ([2]; mean±SD across NHL and MM lines, read-out: IC50 in hematopoietic (NHL and MM) cell lines, mean±SD) [µM] |
| --- | --- | --- | --- | --- | --- | --- |
|  |  | O=C(Nc1ccncc1)c1cc([N+](=O)[O-])ccc1Cl [T0070907] | additive increases in growth inhibition; also recorded: additive effects | more potent than GW9662 |  |  |
|  |  | O=C(Nc1ccccc1)c1cc([N+](=O)[O-])ccc1Cl [GW9662] | additive increases in growth inhibition; also recorded: additive effects |  |  |  |
| ≥ 11.1 | 60.1 ± 28.1 | CCc1ccc(CCOc2ccc(CC3SC(=O)NC3=O)cc2)nc1 (stereo not shown) [pioglitazone] |  |  | 82 to 125 | 101 ± 17.7 |
